How the values were obtained:
[1] = tested on: several pathogenic bacteria; assay: Radial diffusion assay and MIC screening for antimicrobial activity; type: cell-based; conditions: radial diffusion assay and MIC determinations
Experimental: Methods: Log-phase bacteria were cultivated for up to 18 hours in TSB (TSB, Becton Dickinson, USA), washed and diluted to 4×10^6 CFU in 10 ml agar. Bacteria were incubated in 10 ml of 10 mM sodium phosphate, pH 7.4, containing 0.3 mg/ml of TSB powder and 1% (w/v) low EEO-agarose (AppliChem). Lipopeptides were pipetted into punched wells and diffused into the gel for 3 hours at 37° C. After that, a nutrient-rich gel with 6% TSB (w/v) and 1% agarose in 10 mM sodium phosphate buffer was poured on top of the first gel and incubated for up to 24 hours at 37° C. Then the diameter of inhibition zones was measured.
Clinical isolates of A. baumannii DSM30007, E. faecium DSM2918, K. pneumoniae DSM30104 and P. aeruginosa DSM1117 were provided by the Department for Laboratory Medicine at Robert-Bosch-Hospital Stuttgart, Germany. C. rodentium DSM16636 and E. coli DSM8695 were obtained from the Deutsche Sammlung von Mikroorganismen and Zellkultur GmbH Braunschweig, Germany. […]

[2] = tested on: C. albicans; assay: Broth microdilution assay, antifungal activity; type: cell-based
Experimental: (§1) Methods: Broth microdilution assay. Candida was cultured in TSB over night at 37° C., centrifuged (1500 rpm, 10 min, RT) and washed twice with 10 mM sodium phosphate buffer containing 1% (w/v) TSB. Candida cells were counted and approximately 5×10^5 CFU/ml fungi were incubated with serial peptide concentrations (1.17-150 μM) in a final volume of 100 μl in 10 mM sodium phosphate buffer containing 1% (w/v) TSB for 2 hours at 37° C. After incubation, 100 μl of 6% TSB (w/v) was added and absorbance was measured at 600 nm (Tecan, Switzerland) and monitored for 18 hours. Afterwards, 100 μl per well was plated on YPD agar to determine the number of viable bacteria microbiologically.

[3] = tested on: C. tropicalis; assay: Broth microdilution assay, antifungal activity; type: cell-based
Experimental: as §1

[4] = tested on: ypuA promoter; assay: ypuA promoter luciferase reporter gene assay; type: cell-based, Bacillus subitilis 1S34
Experimental: A specific bacterial reporter strain with the genetic background of Bacillus subitilis 1S34, carrying the promoter of the ypuA gene, fused to the firefly luciferase reporter gene, was used to identify cell envelope-related damage caused by treatment with antimicrobial compounds. Bacteria were cultured to an OD600 of 0.9 in LB broth with 5 μg/ml erythromycin at 37° C. and diluted to an OD600 of 0.02. Serial peptide dilutions (0.15-150 μM) were prepared in a microtiter plate and incubated with the adjusted bacterial suspension at 37° C. for 1 hour. Subsequently, citrate buffer (0.1 M, pH 5) containing 2 mM luciferin (Iris Biotech, Germany) was added and luminescence was measured using a microplate reader (Tecan, Switzerland).

[5] = Cellular toxicity, lactate dehydrogenase (LDH) assay; type: cell-based
Experimental: (§2) Methods: Cellular toxicity was determined by Lactate dehydrogenase concentration and WST-1 cell proliferation assay as well as hemolysis assay.

[6] = Cellular toxicity, WST-1 cell proliferation assay; type: cell-based
Experimental: as §2

[7] = tested on: S. Typhimurium; assay: Acute gastrointestinal infection caused by S. Typhimurium; type: in vivo, mice
Experimental: Methods: Analysis of bacterial loads in feces. Fresh fecal samples were collected and weighted. Samples were homogenized in 1 ml LB media by bead-beating with 1 mm zirconia/silica beads twice for 25 s using a Mini-Beadbeater-96 (BioSpec). To determine CFUs, dilutions of homogenized samples were plated on LB plates with 50 μg/ml kanamycin. Analysis of bacterial loads in intestinal content and systemic organs. All mice were euthanized by asphyxiation with CO2 at indicated time points. Intestinal tissues (small intestine, cecum, colon) were removed aseptically. To collect intestinal content, organs were flushed with PBS. Organs were opened longitudinally, cleaned thoroughly with PBS and weighted. Organs and content were homogenized in PBS using a Polytron homogenizer ([…]). Dilutions of homogenized samples were plated on LB plates containing 50 μg/ml kanamycin to determine CFUs. For S. Typhimurium infection experiments, age- and sex-matched mice between 10 and 14 weeks of age were used. Both-female and male mice were used in experiments. Water and food were withdrawn for 4 hours before mice were treated with 20 mg/mouse of streptomycin by oral gavage. Afterwards, mice were supplied with water and food ad libitum. 20 hours after streptomycin treatment, water and food were withdrawn again, 4 hours before the mice were orally infected with 10^5 CFU of S. Typhimurium in 200 μl PBS. […]

Pam2-Glc-Suc-RGKAKCCK [Pam-1]
antimicrobial activity, inhibition of bacterial growth of the tested strains [1]: generally inactive
antifungal activity against C. albicans [2]: no antifungal activity
antifungal activity against C. tropicalis [3]: no antifungal activity
cell envelope damage (ypuA reporter) [4]: little cell envelope damage
LDH activity (cytotoxicity) [5]: no LDH activity
metabolic activity (WST-1 assay) [6]: normal metabolic activity
CFU of S. Typhimurium in cecum content ([7]; 250 μg orally 6 and 22 hours post infection, vs PBS, Mann-Whitney test): significantly reduced
CFU's in gut content and gut tissue, acute model (summary) ([7]; mouse, in vivo): significant CFU reduction in the acute model and this only for gut content

Source: US20230365639A1, “DEFENSIN FRAGMENT DERIVED LIPOPEPTIDES FOR TREATMENT OF DRUG-RESISTANT MICROORGANISMS” (priority 2020, published 2023)
